In patent publication US20250059174A1, “Pharmaceutical Compounds and Compositions as C-Kit Kinase Inhibitors” (Enanta Pharmaceuticals, Inc., priority 2023, published 2025):
pEC50, pIC50: −log10 of the molar value.

How the values were obtained:
M-07e cells = experiment: M-07e cellular assay (SCF-mediated cell proliferation); assay type: cell-based; conditions: Homo sapiens, 72 hours, CellTiter Glo
Outline: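 Readout came from CellTiter Glo after 72 h of compound treatment in SCF (EC90)-stimulated, pre-starved M-07e cells at 37 °C.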

[1] = molecular target: Recombinant human c-KIT kinase (Homo sapiens (Human), UniProt P10721); experiment: c-KIT kinase chemiluminescence assay (ADP-Glo); assay type: biochemical; conditions: ATP 50 μM
Sequence of Recombinant human c-KIT kinase (P10721 26-976): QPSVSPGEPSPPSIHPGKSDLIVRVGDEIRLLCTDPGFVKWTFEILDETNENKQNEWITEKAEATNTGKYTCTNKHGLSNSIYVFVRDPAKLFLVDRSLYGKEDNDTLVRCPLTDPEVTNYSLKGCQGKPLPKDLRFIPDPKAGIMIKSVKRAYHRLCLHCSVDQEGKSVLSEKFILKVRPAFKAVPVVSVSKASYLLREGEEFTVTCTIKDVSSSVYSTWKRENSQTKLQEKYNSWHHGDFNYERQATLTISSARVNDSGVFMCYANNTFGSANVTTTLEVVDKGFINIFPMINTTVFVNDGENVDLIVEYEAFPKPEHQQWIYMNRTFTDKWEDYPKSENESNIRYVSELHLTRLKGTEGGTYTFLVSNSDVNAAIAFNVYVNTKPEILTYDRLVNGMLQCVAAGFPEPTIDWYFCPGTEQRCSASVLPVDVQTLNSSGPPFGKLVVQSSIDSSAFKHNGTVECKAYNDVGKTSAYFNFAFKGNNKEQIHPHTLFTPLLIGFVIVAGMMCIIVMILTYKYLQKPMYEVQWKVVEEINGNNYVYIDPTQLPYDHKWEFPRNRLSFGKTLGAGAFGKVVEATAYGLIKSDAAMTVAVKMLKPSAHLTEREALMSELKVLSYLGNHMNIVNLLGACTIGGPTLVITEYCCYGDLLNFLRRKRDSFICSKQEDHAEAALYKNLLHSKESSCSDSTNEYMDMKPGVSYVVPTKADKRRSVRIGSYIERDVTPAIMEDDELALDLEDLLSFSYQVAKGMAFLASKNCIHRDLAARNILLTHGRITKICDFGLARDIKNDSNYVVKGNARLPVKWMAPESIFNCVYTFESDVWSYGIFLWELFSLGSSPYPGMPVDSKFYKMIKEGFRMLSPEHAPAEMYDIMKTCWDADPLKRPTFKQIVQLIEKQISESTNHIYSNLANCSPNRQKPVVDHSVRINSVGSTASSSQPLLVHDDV
Outline: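 Recombinant human c-KIT preincubated 30 min at RT in 40 mM Tris pH 7.5, 20 mM MgCl2, 0.1 mg/mL BSA, 50 μM DTT, then reacted 2 h at RT with ATP and polyEY substrate. ADP-Glo luminescence readout; activity normalized to high/low controls, IC50 and Hill coefficient from inhibitor-versus-normalized-response fit.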

pIC50 [1] | SMILES | pEC50 (M-07e cells)
< 6.00 | CC(=O)N1CC2(CC(c3nc(-c4cnc(C)c(NC(=O)c5cnn6ccc(N7CC8(COC8)C7)cc56)c4)no3)C2)C1 [Example 281-76] | < 6.00
> 7.00 | Cc1ccc(-c2noc([C@H]3C[C@@H]3F)n2)cc1NC(=O)c1cnn2ccc(-c3cncnc3)cc12 [Example 154] | > 7.00
> 7.00 | Cc1ccc(-c2noc([C@H]3C[C@@H]3F)n2)cc1NC(=O)c1cnn2ccc(N3CC4(CCOC4)C3)cc12 [Example 183] | > 7.00
6.00 to 7.00 | Cc1ccc(-c2noc([C@H]3C[C@@H]3F)n2)cc1NC(=O)c1cnn2ccc(NCC3(C(=O)O)COC3)cc12 [Example 241-14] | < 6.00
6.00 to 7.00 | Cc1ccc(-c2noc([C@H]3C[C@@H]3F)n2)cc1NC(=O)c1cnn2ccc(-c3cn(C(F)F)nn3)cc12 [Example 111] | > 7.00
> 7.00 | COCCn1nc(C)c(-c2ccn3ncc(C(=O)Nc4cc(-c5noc([C@H]6C[C@@H]6F)n5)ccc4C)c3c2)c1C [Example 146] | > 7.00
> 7.00 | Cc1ccc(-c2noc(C3CN(CC(F)(F)F)C3)n2)cc1NC(=O)c1cnn2ccc(N3CC4(COC4)C3)cc12 [Example 281-8] | > 7.00
